Test results as given in the NIST ThermoML archive (doi:10.1021/je101146f).

Columns and labels:
[1] = Ring tensiometer
[2] = xn = mol fraction of the nth substance listed; details: Ring tensiometer

CC#N [acetonitrile]
[1]
Details | surface tension liquid-gas [mN/m]
293.15 K | 28.95
298.15 K | 28.37
303.13 K | 27.66
308.15 K | 27.03
313.15 K | 26.43

C1CCOC1 [tetrahydrofuran] + CCn1cc[n+](C)c1.O=S(=O)([N-]S(=O)(=O)C(F)(F)F)C(F)(F)F
[2], x2 = 0
Details | surface tension liquid-gas [mN/m]
293.15 K | 27.31
298.15 K | 26.68
303.13 K | 26.04
308.15 K | 25.38

CCn1cc[n+](C)c1.O=S(=O)([N-]S(=O)(=O)C(F)(F)F)C(F)(F)F + CC#N
surface tension liquid-gas [mN/m], [2]
Details | x1 = 0.0533 | x1 = 0.1886 | x1 = 0.337 | x1 = 0.4724 | x1 = 0.652 | x1 = 0.8245 | x1 = 0.924 | x1 = 1
293.15 K | 30.48 | 32.72 | 34.02 | 34.77 | 35.38 | 35.83 | 35.98 | 36.14
298.15 K | 29.8 | 32.1 | 33.55 | 34.42 | 35.11 | 35.6 | 35.76 | 35.9
303.13 K | 29.26 | 31.63 | 33.15 | 33.99 | 34.8 | 35.29 | 35.5 | 35.56
308.15 K | 28.65 | 31.16 | 32.78 | 33.61 | 34.49 | 34.99 | 35.22 | 35.35
313.15 K | 28.04 | 30.69 | 32.36 | 33.28 | 34.2 | 34.75 | 35 | 35.1

C1CCOC1 [tetrahydrofuran]
[1]
Details | surface tension liquid-gas [mN/m]
293.15 K | 27.31
298.15 K | 26.68
303.13 K | 26.04
308.15 K | 25.38

CCn1cc[n+](C)c1.O=S(=O)([N-]S(=O)(=O)C(F)(F)F)C(F)(F)F + C1CCOC1
surface tension liquid-gas [mN/m], [2]
Details | x1 = 0.1037 | x1 = 0.2024 | x1 = 0.3255 | x1 = 0.3841 | x1 = 0.4425 | x1 = 0.5469 | x1 = 0.6863 | x1 = 0.7697 | x1 = 0.9177 | x1 = 1
293.15 K | 28.72 | 29.94 | 31.05 | 31.62 | 32.12 | 32.98 | 34.07 | 34.55 | 35.65 | 36.14
298.15 K | 28.1 | 29.42 | 30.62 | 31.18 | 31.76 | 32.63 | 33.81 | 34.38 | 35.46 | 35.9
303.13 K | 27.52 | 28.84 | 30.18 | 30.82 | 31.41 | 32.39 | 33.52 | 34.15 | 35.22 | 35.56
308.15 K | 26.88 | 28.33 | 29.84 | 30.52 | 31.07 | 32.08 | 33.26 | 33.92 | 34.98 | 35.35

CCn1cc[n+](C)c1.O=S(=O)([N-]S(=O)(=O)C(F)(F)F)C(F)(F)F
[1]
Details | surface tension liquid-gas [mN/m]
293.15 K | 36.14
298.15 K | 35.9
303.13 K | 35.56
308.15 K | 35.35
313.15 K | 35.1

CC#N [acetonitrile] + CCn1cc[n+](C)c1.O=S(=O)([N-]S(=O)(=O)C(F)(F)F)C(F)(F)F
[2], x2 = 0
Details | surface tension liquid-gas [mN/m]
293.15 K | 28.95
298.15 K | 28.37
303.13 K | 27.66
308.15 K | 27.03
313.15 K | 26.43
